Laboratory results as given in patent US12604895B2, “Pesticidally active cyclic amine compounds” (SYNGENTA CROP PROTECTION AG, priority 2020, dated 2026).

Columns and labels:
Assay type in all cases: in vivo
[1] = test system: Tetranychus urticae (Two-Spotted Spider Mite); test: Example B5: Tetranychus urticae (Two-Spotted Spider Mite), feeding/contact activity; conditions: foliar, 192 h, application rate of 200 ppm, mixed population (mobile stages) on sprayed bean leaf discs, 8 days after infestation
Protocol: Example B5: Tetranychus urticae (Two-Spotted Spider Mite): Feeding/Contact Activity
Bean leaf discs on agar in 24-well microtiter plates were sprayed with aqueous test solutions prepared from 10′000 ppm DMSO stock solutions. After drying the leaf discs were infested with a mite population of mixed ages. The samples were assessed for mortality on mixed population (mobile stages) 8 days after infestation.

[2] = test system: Euschistus heros (Neotropical Brown Stink Bug); test: Example B2: Euschistus heros (Neotropical Brown Stink Bug), sprayed soybean leaves; conditions: 120 h, application rate of 200 ppm, N2 nymphs on sprayed soybean leaves, 5 days after infestation, read-out: control in at least one of the two categories (mortality or growth inhibition)
Protocol: Example B2: Euschistus heros (Neotropical Brown Stink Bug)
Soybean leaves on agar in 24-well microtiter plates were sprayed with aqueous test solutions prepared from 10′000 ppm DMSO stock solutions. After drying the leaves were infested with N2 nymphs. The samples were assessed for mortality and growth inhibition in comparison to untreated samples 5 days after infestation.
The following compounds gave an effect of at least 80% control in at least one of the two categories (mortality or growth inhibition) at an application rate of 200 ppm: P2.1., P8.1

[3] = test system: Diabrotica balteata (Corn Root Worm); test: Example B1: Diabrotica balteata (Corn Root Worm), sprayed maize sprouts; conditions: 96 h, application rate of 200 ppm, L2 larvae on sprayed maize sprouts, 4 days after infestation, read-out: control in at least one of the two categories (mortality or growth inhibition)
Protocol: Example B1: Diabrotica balteata (Corn Root Worm)
Maize sprouts placed onto an agar layer in 24-well microtiter plates were treated with aqueous test solutions prepared from 10′000 ppm DMSO stock solutions by spraying. After drying, the plates were infested with L2 larvae (6 to 10 per well). The samples were assessed for mortality and growth inhibition in comparison to untreated samples 4 days after infestation.
The following compounds gave an effect of at least 80% control in at least one of the two categories (mortality or growth inhibition) at an application rate of 200 ppm: P1.2, P2.1, P2.2, P2.5, P2-17, P3.4, P7.1, P8.1

[4] = test system: Plutella xylostella (Diamond Back Moth); test: Example B3: Plutella xylostella (Diamond Back Moth), artificial diet; conditions: 192 h, application rate of 200 ppm, eggs, treated artificial diet, 8 days after infestation, read-out: control in at least one of the two categories (mortality or growth inhibition)
Protocol: Example B3: Plutella xylostella (Diamond Back Moth)
24-well microtiter plates with artificial diet were treated with aqueous test solutions prepared from 10′000 ppm DMSO stock solutions by pipetting. After drying, Plutella eggs were pipetted through a plastic stencil onto a gel blotting paper and the plate was closed with it. The samples were assessed for mortality and growth inhibition in comparison to untreated samples 8 days after infestation. The following compounds gave an effect of at least 80% control in at least one of the two categories (mortality or growth inhibition) at an application rate of 200 ppm: P1.2, P1.15, P1.51, P2.1, P2.2, P2.5, P2.10, P2.15, P2.16, P5.1, P5.2, P5.3, P7.1, P8.1

| SMILES | mortality at 200 ppm [1] [%] | percent control (mortality or growth inhibition) at 200 ppm [2] [%] | percent control (mortality or growth inhibition) at 200 ppm [3] [%] | percent control (mortality or growth inhibition) at 200 ppm [4] [%] |
| --- | --- | --- | --- | --- |
| Cc1nc(C2CCN(C(=O)c3cc(C#N)c(-c4ccc(C(F)(F)F)cc4)cc3C(F)(F)F)CC2)no1 [Compound P1.1, 5-[4-(5-Methyl-1,2,4-oxadiazol-3-yl)piperidine-1-carbonyl]-4-(trifluoromethyl)-2-[4-(trifluoromethyl)phenyl]benzonitrile] | ≥ 80 |  |  |  |
| CCOc1cc(-c2ccc(C(F)(F)F)cc2)c(C#N)cc1C(=O)N1CCC(CSCC)CC1 [Compound P1.46, 4-Ethoxy-5-[4-(ethylsulfanylmethyl)piperidine-1-carbonyl]-2-[4-(trifluoromethyl)phenyl]-benzonitrile] | ≥ 80 |  |  |  |
| N#Cc1cc(C(=O)N2CCN(c3ncc(Cl)cc3Cl)CC2)c(C(F)(F)F)cc1-c1ccc(C(F)(F)F)cc1 [Compound P2.1, 5-[4-(3,5-Dichloro-2-pyridyl)piperazine-1-carbonyl]-4-(trifluoromethyl)-2-[4-(trifluoromethyl)phenyl]benzonitrile] | ≥ 80 | ≥ 80 | ≥ 80 | ≥ 80 |
| CCOc1cc(-c2ccc(C(F)(F)F)cc2)c(C#N)cc1C(=O)N1CCN(c2ncc(Cl)cc2Cl)CC1 [Compound P2.5, 5-[4-(3,5-Dichloro-2-pyridyl)piperazine-1-carbonyl]-4-ethoxy-2-[4-(trifluoromethyl)-phenyl]-benzonitrile] | ≥ 80 |  | ≥ 80 | ≥ 80 |
| CCC[S+]([O-])CC1CN(C(=O)c2cc(C#N)c(-c3ccc(C(F)(F)F)cc3)cc2C(F)(F)F)C1 (stereo not shown) [Compound P3.7, 5-[3-(Propylsulfinylmethyl)azetidine-1-carbonyl]-4-(trifluoromethyl)-2-[4-(trifluoromethyl)phenyl]-benzonitrile] | ≥ 80 |  |  |  |
| CCCSCC1CN(C(=O)c2cc(C#N)c(-c3ccc(C(F)(F)F)cc3)cc2C(F)(F)F)C1 [Compound P3.9, 5-[3-(propylsulfanylmethyl)azetidine-1-carbonyl]-4-(trifluoromethyl)-2-[4-(trifluoromethyl)-phenyl]benzonitrile] | ≥ 80 |  |  |  |
| Cc1nc(C2CCN(C(=O)c3cc(C#N)c(-c4ccc(C(F)(F)F)cc4)c(C#N)c3C)CC2)no1 [Compound P6.1] | ≥ 80 |  |  |  |
| NC(=S)c1cc(C(=O)N2CCN(c3ncc(Cl)cc3Cl)CC2)c(C(F)(F)F)cc1-c1ccc(C(F)(F)F)cc1 [Compound P8.1, 5-[4-(3,5-Dichloro-2-pyridyl)piperazine-1-carbonyl]-4-(trifluoromethyl)-2-[4-(trifluoromethyl)phenyl]benzenecarbothioamide] | ≥ 80 | ≥ 80 | ≥ 80 | ≥ 80 |
